Tests used:
[1] = target: Cyclin-dependent kinase 4 (Homo sapiens, UniProt P11802)
Description: Inhibitory activity against human CDK4 (Cyclin dependent kinase 4)

[2] = target: Cyclin-dependent kinase 2 (Homo sapiens, UniProt P24941)

Chain of Cyclin-dependent kinase 4 (P11802 whole entry): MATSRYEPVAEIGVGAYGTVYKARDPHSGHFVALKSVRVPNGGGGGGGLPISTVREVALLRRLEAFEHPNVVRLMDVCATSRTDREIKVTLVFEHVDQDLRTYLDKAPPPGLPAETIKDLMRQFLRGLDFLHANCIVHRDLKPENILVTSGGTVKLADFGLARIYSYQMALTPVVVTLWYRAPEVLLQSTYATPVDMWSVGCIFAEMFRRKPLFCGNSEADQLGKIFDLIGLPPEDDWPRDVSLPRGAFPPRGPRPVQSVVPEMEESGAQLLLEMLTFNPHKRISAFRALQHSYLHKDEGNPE

`Cc1nc(C)c(-c2ccnc(Nc3ccccc3)n2)s1` gave a Ki [1] of 2.6 µM and a Ki [2] of 0.08 µM.

`CCNc1nc(C)c(-c2ccnc(Nc3cccc(O)c3)n2)s1` was tested, and the Ki [1] was over 20 µM and the Ki [2] was over 10 µM.

`Cc1nc(C)c(-c2ccnc(Nc3ccccc3F)n2)s1` was tested, and the Ki [1] was 1.2 µM and the Ki [2] was 1.2 µM.

`Cc1nc(C)c(-c2ccnc(N(C)c3cccc([N+](=O)[O-])c3)n2)s1` gave a Ki [1] of over 20 µM and a Ki [2] of over 20 µM.

Molecule `Cc1nc(-c2ccccn2)sc1-c1ccnc(Nc2cccc([N+](=O)[O-])c2)n1` has a Ki [1] of over 20 µM and a Ki [2] of over 20 µM.

With `Cc1nc(N)sc1-c1ccnc(Nc2ccc(O)cc2)n1` the Ki [1] was 0.32 µM and the Ki [2] was 0.03 µM.

Work on `Cc1nc(C)c(-c2ccnc(Nc3cccc(F)c3)n2)s1` yielded a Ki [1] of 0.9 µM and a Ki [2] of 0.1 µM.

Work on `Cc1nc(C)c(-c2ccnc(N(C)C)n2)s1` yielded a Ki [1] of over 20 µM and a Ki [2] of over 20 µM.

`Cc1nc(C)c(-c2ccnc(Nc3ccccc3Cl)n2)s1` showed a Ki [1] of over 20 µM and a Ki [2] of over 20 µM.

For `CNc1nc(C)c(-c2ccnc(Nc3cccc(O)c3)n2)s1`, the Ki [1] was 0.37 µM and the Ki [2] was 0.11 µM.

`Cc1nc(C)c(-c2ccnc(Nc3ccc(O)cc3)n2)s1` gave a Ki [1] of 0.32 µM and a Ki [2] of 0.14 µM.

Work on `Cc1nc(C)c(-c2ccnc(Nc3cccc(Cl)c3)n2)s1` yielded a Ki [1] of 9.4 µM and a Ki [2] of 0.67 µM.

`Cc1nc(C)c(-c2ccnc(Nc3ccc(Cl)cc3)n2)s1` gave a Ki [1] of over 20 µM and a Ki [2] of 2.5 µM.

Molecule `Cc1nc(N(C)C)sc1-c1ccnc(Nc2cccc([N+](=O)[O-])c2)n1` has a Ki [1] of 5.3 µM and a Ki [2] of 0.06 µM.

`CNc1nc(C)c(-c2ccnc(Nc3cccc([N+](=O)[O-])c3)n2)s1` showed a Ki [1] of 1.6 µM and a Ki [2] of 0.8 µM.

For `CNc1nccc(-c2sc(C)nc2C)n1`, the Ki [1] was over 20 µM and the Ki [2] was over 20 µM.

Work on `Cc1nc(C)c(-c2ccnc(Nc3cccc(C#N)c3)n2)s1` yielded a Ki [1] of 0.48 µM and a Ki [2] of 0.3 µM.

For `Cc1nc(C)c(-c2ccnc(Nc3cccc(C(F)(F)F)c3)n2)s1`, the Ki [1] was over 20 µM and the Ki [2] was over 20 µM.

`Cc1nc(C)c(-c2ccnc(N)n2)s1` was tested, and the Ki [1] was 16 µM.

With `Cc1nc(C)c(-c2ccnc(Nc3cccc(N)c3)n2)s1` the Ki [1] was 10.6 µM and the Ki [2] was 0.4 µM.

Work on `Cc1nc(C)c(-c2ccnc(Nc3ccc([N+](=O)[O-])cc3)n2)s1` yielded a Ki [1] of over 20 µM and a Ki [2] of 4.1 µM.

`Cc1nc(C)c(-c2ccnc(Nc3ccccc3C(F)(F)F)n2)s1` gave a Ki [1] of over 20 µM and a Ki [2] of over 20 µM.

Reference: ChEMBL document CHEMBL1149116, “2-Anilino-4-(thiazol-5-yl)pyrimidine CDK inhibitors: synthesis, SAR analysis, X-ray crystallography, and biological activity” (J Med Chem, 2004)
